Measured values as given in publication PMC8658773, “Two New Isoprenoid Flavonoids from Sophora flavescens with Antioxidant and Cytotoxic Activities” (Molecules, 2021).
Like-named read-outs stand apart in the source and are kept apart here.

Legend:
MCF7 cells [1] = assay: Cytotoxic activity (MTS assay), MCF7; assay type: cell-based, human; conditions: for IC50 / inhibition at 10 µM: Homo sapiens, MCF7, 24 h; for IC50: MTS; for inhibition at 10 µM: read-out: MCF7 inhibition rate
Method: (§1) The tests were conducted according to our previous reports. The cells were grown in DMEM medium supplemented with 10% FBS, penicillin (100 U/mL), and streptomycin (100 μg/mL) in a 37 °C and 5% CO2 incubator. The cytotoxic activities were performed by the MTS assay. Briefly, 28 compounds were dissolved with DMSO. The cells were seeded at 1 × 10^5 cells/mL in 96-well plates (100 µL/well) and cultured for 18 h when the cells filled the bottom of the wells. Then the supernatant was discard, the compounds (10 μM, 100 µL/well) were added to the culture and incubated for 24 h before cell viability measurement. 10 µL MTS reagent (0.5 mg/mL) were added and further incubated for 4 h. Finally, absorbance was read using an automatic micro-plate reader (Molecular Devices, USA) at 490 nm to test the cell viabilities, and the results were presented as the percent of non-treated control for each concentration. Irinotecan was used as the positive control. All measurements were repeated in triplicate. Data were expressed as the mean ± SD.

A549 cells [2] = assay: Cytotoxic activity (MTS assay), A549; assay type: cell-based, human; conditions: for IC50: MTS
Method: as §1

HepG2 cells [3] = assay: Cytotoxic activity (MTS assay), HepG2; assay type: cell-based, human; conditions: for IC50: 24 h, MTS; for inhibition at 10 µM: HepG2, 24 h, read-out: HepG2 inhibition rate
Method: as §1

HepG2 cells [4] = assay: Cytotoxic activity (MTS assay), HepG2; assay type: cell-based, human; conditions: SD in brackets; for inhibition at 10 µM: Homo sapiens, HepG2, 10 µM, read-out: HepG2 cell inhibitory activity (Table S4)
LO2 cells = assay: Cytotoxic activity (MTS assay), LO2 normal cells; assay type: cell-based, human; conditions: for inhibition at 10 µM: Homo sapiens, L02, read-out: LO2 cell inhibitory activity (Table S7)
[5] = DPPH free radical scavenging assay; assay type: biochemical; conditions: 20 μg/mL; SD in brackets
Method: The in vitro antioxidant activity tests were conducted according to previous reports. Among them, the DPPH free radical scavenging assay was slightly modified. Briefly, the DPPH material was precisely weighed, ethanol solution was added to obtain a concentration of 0.1 mmol/L (to use immediately, or store in the dark). Then, the compounds (100 µL, 40 µg/mL) with DPPH solution (100 µL) (Ai) were added to 96-well plates and incubated for 30 min at room temperature. Subsequently, the activity was measured using the Thermo Scientific Varioskan LUX ([…], VL0L00D0, USA), with an absorbance of 570 nm. Vitamin C (VC) (40 µg/mL) was used as the positive control.

[6] = PTIO free radical scavenging assay; assay type: biochemical; conditions: 8 μg/mL; SD in brackets
Method: PTIO free radical scavenging was also performed following previous reports with some modification. VC was used as the positive control. PTIO radicals were dissolved with phosphate buffer (PBS) (pH 7.4, 50 mM) with a concentration of 0.05 mg/mL. Then, the samples (40 µL, 40 µg/mL) and PTIO solution (160 µL) were added into 96-well plates (as the value of Ai). After being thoroughly mixed, the reaction solution was incubated at 37 °C in a water-bath for 2 h. Then, the absorbance was measured at 557 nm. PTIO free radical scavenging was calculated using the above equation. (40 µL PBS with 160 µL PTIO as A0, 40 µL compounds with 160 µL PBS as Aj).

A549 cells [7] = assay: Cytotoxic activity (MTS assay), A549; assay type: cell-based, human; conditions: SD in brackets; for inhibition at 10 µM: Homo sapiens, A549, read-out: A549 cell inhibitory activity (Table S5)
[8] = ABTS free radical scavenging assay; assay type: biochemical; conditions: for ABTS radical scavenging activity (inhibition rate): 20 μg/mL, SD in brackets
Method: The third assay, the ABTS free radical scavenging screen was performed by previous experiments with slight changes. First, we needed to prepare for the ABTS^+ solution. […] Then, they were mixed with equal volume at room temperature and kept away from light for 12 h, the mixed solution was diluted with ethanol until the absorbance of […]. Thus, the ABTS^+ solution was obtained. Furthermore, the compounds (100 µL, 40 µg/mL) with ABTS^+ solution (100 µL) were also added to the 96-well plates (as the value of Ai) and were interacted for 10 min at room temperature in the dark, then the absorbance at 734 nm was measured. VC was used as the positive control. Antioxidant capacity was calculated according to the first formula (the value of 100 µL ethanol with 100 µL ABTS^+ solution as A0, the value of 100 µL compounds with 100 µL ethanol as Aj). All experiments were carried out in triplicate.

MCF7 cells [9] = assay: Cytotoxic activity (MTS assay), MCF7; assay type: cell-based, human; conditions: SD in brackets; for inhibition at 10 µM: Homo sapiens, MCF7, read-out: MCF-7 cell inhibitory activity (Table S6)
[10] = tested on: HepG2, A549 and MCF7 cells; assay: Cytotoxic activity (MTS assay), stated jointly for three cancer cell lines; assay type: cell-based; conditions: Homo sapiens, read-out: IC50 values against the three cancer cell lines (range)
Method: as §1

In the case of `CCc1c2c(nc3ccc(OC(=O)N4CCC(N5CCCCC5)CC4)cc13)-c1cc3c(c(=O)n1C2)COC(=O)[C@]3(O)CC` [irinotecan, reference compound], the IC50 (MCF7 cells [1]) is reported as 0.9 µM, the IC50 (A549 cells [2]; Homo sapiens, A549, 24 h) is reported as 1 µM and the IC50 (HepG2 cells [3]; Homo sapiens, HepG2) is reported as 0.6 µM.

With kushenol A [Compound 13] the “Inhibition of MCF7 cells (in words)” value (MCF7 cells [1]) was “could hardly inhibit”, the “Inhibition of A549 cells (in words)” value (A549 cells [2]) was “could hardly inhibit” and the “HepG2 cell inhibitory activity (Table S4)” value (HepG2 cells [4]; 10 μg/mL) was 97.5% (0.1%). The “LO2 cell inhibitory activity (Table S7)” value (LO2 cells; 10 μg/mL, SD in brackets) was 26.8% (2.7%), the IC50 (HepG2 cells [3]) was 6.85 µM and the “DPPH radical scavenging activity (inhibition rate)” value [5] was 25.6% (2.4%). The “PTIO radical scavenging activity (inhibition rate)” value [6] was 35.6% (1.0%), the “A549 cell inhibitory activity (Table S5)” value (A549 cells [7]; 10 μg/mL) was 17.6% (0.6%) and the “ABTS radical scavenging activity (inhibition rate)” value [8] was 81.5% (1.9%). For the same compound, the “MCF-7 cell inhibitory activity (Table S6)” value (MCF7 cells [9]; 10 μg/mL) was 11.5% (2.1%).

In the case of `C=C(C)C(CC=C(C)C)Cc1c(O)c(OC)c2c(c1O)C(=O)C(O)C(c1ccc3c(c1)OCO3)O2` (stereo not shown) [Compound 2, 5,7-dihydroxy-8-methoxy-6-(5-methyl-2-iso-hexenyl)-3′,4′-methylene dioxy-flavanonol], the inhibition at 10 µM (MCF7 cells [1]) is reported as 10.3%, the inhibition at 10 µM (HepG2 cells [4]) is reported as 19.9% and the inhibition at 10 µM (LO2 cells; SD in brackets) is reported as 27.9%. The inhibition at 10 µM (HepG2 cells [3]; Homo sapiens) was 19.9%, the “DPPH radical scavenging activity (inhibition rate)” value [5] was 42.3% (1.5%) and the “PTIO radical scavenging activity (inhibition rate)” value [6] was 41.0% (2.6%). For the same compound, the inhibition at 10 µM (A549 cells [7]) was 17.2%, the “ABTS radical scavenging IC50” value [8] was 1.81 µg/mL and the inhibition at 10 µM (MCF7 cells [9]) was 10.3%.

Work on `C=C(C)[C@H](CCC(C)(C)O)Cc1c(O)cc(OC)c2c1O[C@H](c1ccc(O)cc1O)[C@@H](O)C2=O` [Compound 3, kushenol H] yielded an inhibition at 10 µM (MCF7 cells [1]) of 4.5%, an inhibition at 10 µM (HepG2 cells [4]) of 1.9% and an inhibition at 10 µM (LO2 cells; SD in brackets) of 15.5%. For the same compound, the inhibition at 10 µM (HepG2 cells [3]; Homo sapiens) was 1.9%, the “DPPH radical scavenging activity (inhibition rate)” value [5] was 53.5% (0.4%) and the inhibition at 10 µM (A549 cells [7]) was 11.3%. The “ABTS radical scavenging IC50” value [8] was 2.05 µg/mL and the inhibition at 10 µM (MCF7 cells [9]) was -4.5%.

`C=C(C)C(CC=C(C)C)Cc1cc(OC)ccc1C1Oc2cc(O)cc(CC(CC=C(C)C)C(=C)C)c2C(=O)C1O` (stereo not shown) [Compound 1, 7-hydroxy-5,1-bis (5-methyl-2-isopropyl-hexene) -flavanonol] showed an inhibition at 10 µM (MCF7 cells [1]) of 85%, an IC50 (MCF7 cells [1]) of 7.5 µM and an inhibition at 10 µM (A549 cells [2]; Homo sapiens, A549, 10 μM, 24 h, read-out: A549 inhibition rate) of 58%. It also gave an IC50 (A549 cells [2]; Homo sapiens, A549, 24 h) of 10.6 µM, an inhibition at 10 µM (HepG2 cells [4]) of 84.1% and an inhibition at 10 µM (LO2 cells; SD in brackets) of 29.4%. For the same compound, the “Cytotoxic effect on LO2 human normal cells (in words)” value (LO2 cells; compared with cancer cells) was “little effect”, the inhibition at 10 µM (HepG2 cells [3]; Homo sapiens) was 84% and the IC50 (HepG2 cells [3]; Homo sapiens, HepG2) was 9.6 µM. For the same compound, the “DPPH radical scavenging activity (inhibition rate)” value [5] was 40.0% (4.9%), the “PTIO radical scavenging activity (inhibition rate)” value [6] was 37.3% (3.4%) and the IC50 [10] was 7.5 to 10.6 µM. It also gave an inhibition at 10 µM (A549 cells [7]) of 58% and an inhibition at 10 µM (MCF7 cells [9]) of 85%.

In the case of `COc1ccc(C(=O)O)c(O)c1` [Compound 26, 4-methoxysalicylic acid], the inhibition at 10 µM (HepG2 cells [4]) is reported as 1.5%, the inhibition at 10 µM (LO2 cells; SD in brackets) is reported as -6.2% and the “DPPH radical scavenging activity (inhibition rate)” value [5] is reported as 25.4% (4.9%). For the same compound, the “PTIO radical scavenging activity (inhibition rate)” value [6] was 37.7% (1.6%), the inhibition at 10 µM (A549 cells [7]) was 9.4% and the “ABTS radical scavenging activity (inhibition rate)” value [8] was 72.9% (3.0%). For the same compound, the inhibition at 10 µM (MCF7 cells [9]) was 0.7%.

In the case of `C=C(C)C(CCC(C)(C)O)Cc1c(O)cc(OC)c2c1OC(c1ccc(O)cc1O)C(O)C2=O` (stereo not shown) [Compound 4, kushenol L], the inhibition at 10 µM (MCF7 cells [1]) is reported as 0.7%, the inhibition at 10 µM (HepG2 cells [4]) is reported as 4.6% and the inhibition at 10 µM (LO2 cells; SD in brackets) is reported as 3.2%. For the same compound, the inhibition at 10 µM (HepG2 cells [3]; Homo sapiens) was 4.6%, the “DPPH radical scavenging activity (inhibition rate)” value [5] was 37.1% (3.0%) and the “PTIO radical scavenging activity (inhibition rate)” value [6] was 39.4% (1.3%). The inhibition at 10 µM (A549 cells [7]) was 8.2%, the “ABTS radical scavenging IC50” value [8] was 3.72 µg/mL and the inhibition at 10 µM (MCF7 cells [9]) was -0.7%.

In the case of `O=C(O)c1ccc(O)cc1` [Compound 28, 4-hydroxybenzoic acid], the inhibition at 10 µM (HepG2 cells [4]) is reported as 10.2%, the inhibition at 10 µM (LO2 cells; SD in brackets) is reported as 2.8% and the “DPPH radical scavenging activity (inhibition rate)” value [5] is reported as 20.4% (8.6%). The “PTIO radical scavenging activity (inhibition rate)” value [6] was 37.3% (2.3%), the inhibition at 10 µM (A549 cells [7]) was 15.5% and the “ABTS radical scavenging activity (inhibition rate)” value [8] was 2.2% (0.9%). For the same compound, the inhibition at 10 µM (MCF7 cells [9]) was 1.1%.
